Test results taken from PubChem BioAssay (NCI).
Where “and” joins values, the source holds several entries; their conditions need not be identical. Identical values can stand only once.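 Grown in 96-well plates, cells were treated for 48 hours with each compound at five concentrations. Insufficient inhibition: endpoint recorded as highest concentration tested. Here, GI50 denotes the concentration required for 50% inhibition of growth. TGI denotes the concentration required for complete inhibition of growth.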

Columns and labels:
Assay in all cases: NCI anticancer screen, dose series, 48 h
SR leukemia = test system: SR leukemia
IGROV1 ovarian = test system: IGROV1 ovarian
TK-10 renal = test system: TK-10 renal
SNB-75 CNS = test system: SNB-75 CNS
RXF 393 renal = test system: RXF 393 renal
HCC-2998 colon = test system: HCC-2998 colon
A498 renal = test system: A498 renal
MDA-MB-231 breast = test system: MDA-MB-231 breast
BT-549 breast = test system: BT-549 breast
PC-3 prostate = test system: PC-3 prostate

Structure (SMILES) | TGI (SR leukemia) | TGI (IGROV1 ovarian) [µM] | TGI (TK-10 renal) [µM] | TGI (SNB-75 CNS) [µM] | TGI (RXF 393 renal) [µM] | TGI (HCC-2998 colon) [µM] | TGI (A498 renal) [µM] | GI50 (SR leukemia) [µM] | GI50 (A498 renal) [µM] | GI50 (IGROV1 ovarian) [µM] | GI50 (TK-10 renal) [µM] | GI50 (MDA-MB-231 breast) [µM] | TGI (MDA-MB-231 breast) [µM] | GI50 (SNB-75 CNS) [µM] | GI50 (RXF 393 renal) [µM] | GI50 (HCC-2998 colon) [µM] | GI50 (BT-549 breast) [µM] | TGI (BT-549 breast) [µM] | GI50 (PC-3 prostate) [µM] | TGI (PC-3 prostate) [µM]
O=C1C(Cl)C(c2cccc(O)c2)N1n1cnc2ccccc2c1=O (configuration not stated) | > 100 µM | > 100 | > 100 | > 100 | > 100 | > 100 |  |  |  |  |  |  |  |  |  |  |  |  |  | 
CSc1nc(NC2OCC(OC(C)=O)C(OC(C)=O)C2OC(C)=O)c2c(OC(C)=O)c(C)c(=O)oc2n1 (configuration not stated) |  | > 100 | > 100 | > 100 | > 100 | > 100 | > 100 |  |  |  |  |  |  |  |  |  |  |  |  | 
O=C1C(Cl)=C(Cl)C(=O)N1C1C2CC3CC(C2)CC1C3 (configuration not stated) | > 100 µM | > 100 | > 100 | > 100 | > 100 | > 100 | > 100 |  |  |  |  |  |  |  |  |  |  |  |  | 
C1CC[N-]CC1.C1CC[N-]CC1.C1CC[N-]CC1.C1CC[N-]CC1.[Cl][Rh][Cl] | 42 µM | 76.8 | > 100 | 80.3 | 81.1 | 30.3 | 55.2 | 4.75 | 15.6 | 7.85 | 23.6 | 21.5 | > 100 | 6.69 | 13.8 | 8.17 | 5.6 | 19.3 |  | 
N[C@@H](Cc1c[nH]c2ccccc12)C(=O)NC1CCN(C(=O)c2c[nH]c3ccccc23)CC1 |  | > 100 | > 100 | > 100 |  | > 100 |  |  |  | 64.2 | > 100 | 75.4 | > 100 | 37.4 |  | > 100 | > 100 | > 100 | > 100 | > 100
CCCCCCCCCCC/C(=N/O)c1ccc(O)c2ncccc12 |  |  | > 100 | 13.2 | 27.6 | 23.1 |  |  |  |  |  |  |  |  |  |  |  |  |  | 
CCCC1c2c(ccc3ccccc23)Oc2ccc3ccccc3c21 |  | > 100 | 98.2 | > 100 | > 100 |  | 78 |  |  |  |  |  | > 100 |  |  |  |  | > 100 |  | > 100
O=C(O)c1ccc2c(c1)Cc1cc([N+](=O)[O-])ccc1-2 | > 100 µM | > 100 | > 100 | > 100 |  | > 100 | > 100 |  |  |  |  |  | > 100 |  |  |  |  | > 100 |  | 
Clc1ccc(Cl)c2[s+]snc12 | > 100 µM | > 100 | > 100 | > 100 |  | > 100 | > 100 |  |  |  |  |  |  |  |  |  |  |  |  | 
CC(C)NCCNC(=O)c1ccccc1Nc1c(Cl)cccc1Cl | 26.8 µM | 30.7 | 24 | 16.3 | 17 |  |  |  |  |  |  |  |  |  |  |  |  |  |  | 
OCCCCC#Cc1ccccc1C#Cc1ccccc1 |  | > 100 | 26.3 | 42.1 |  | 43.6 |  |  |  | 30.9 | 13.2 | 4.29 | 14.1 | 16 |  | 16.8 | 11.6 | 25.9 | 14.1 | 27.1
CC1OC(n2ncc(=O)[nH]c2=O)C=CC1=O (configuration not stated) | > 100 µM and 92.9 µM | > 100 | > 100 | > 100 |  | > 100 |  |  |  |  |  |  |  |  |  |  |  |  |  | 
[Cl][Bi]([O]c1ccccn1)[O]c1ccccn1 | > 100 µM | > 100 | > 100 | > 100 | > 100 | > 100 |  | > 100 |  | > 100 | > 100 |  |  | > 100 | > 100 | > 100 |  |  |  | 
CC(O)/C=C/C(CCC(C)CO)C(C)C (configuration not stated) |  | > 100 | > 100 | > 100 | > 100 | > 100 | > 100 |  |  |  |  |  |  |  |  |  |  |  |  | 
Cc1ccc(NC(=O)CC2C(=O)Nc3ccccc3S2=O)cc1C (configuration not stated) | > 100 µM | > 100 | > 100 | > 100 | 41.8 | > 100 | > 100 |  |  |  |  |  |  |  |  |  |  |  |  | 
CC(=O)O[C@H]1C(=O)[C@@]2(C)C(C(OC(=O)c3ccccc3)[C@]3(O)CC(OC(=O)[C@H](OC(=O)CCC(=O)O)C(NC(=O)c4ccccc4)c4ccccc4)C(C)=C1C3(C)C)C1(OC(C)=O)COC1C[C@@H]2OC(=O)CCC(=O)O (some centres not stated) | > 23.3 µM | > 100 | > 100 | > 26.8 | > 26 | 42.4 | 5.65 | < 0.0202 | 0.0997 |  |  |  |  |  |  |  |  |  |  | > 100
N#CC(C(=O)/C(=N/N)C(C#N)c1ccc(Cl)cc1)c1ccc(Cl)cc1 (configuration not stated) |  | > 100 | > 100 | > 100 | > 100 | > 100 | > 100 |  |  |  |  |  |  |  |  |  |  |  |  | 
